Results published in PubChem BioAssay AID1963869 (Molecular Pharmacology Branch, DTP, NCI, 2024).

System: KRAS patient-derived spheroids with HUVEC/MSC, viability
Assay: Anticancer human tumor 323965-272-R-J2-PDC patient-derived pancreatic carcinoma cell line growth inhibition [KRAS2]
Settings: for viability, T/C: stronger effect = lower value
In short: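 KRAS-mutant tumor cells were grown as spheroids with HUVEC endothelial cells and human MSCs as stroma. Targeted agents were tested alone and with KRAS pathway inhibitors. Doses started at or near clinical Cmax, or 10 microM, descending half-log.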

[1] = curve of first compound, second compound 0.0316 µM
[2] = curve of first compound, second compound 0.1 µM
[3] = curve of first compound, second compound 0.316 µM
[4] = curve of first compound, second compound 1 µM
[5] = curve of first compound, second compound 3.16 µM
[6] = second compound 0.0316 µM, first compound 0.0316 µM
[7] = second compound 0.0316 µM, first compound 0.1 µM
[8] = second compound 0.0316 µM, first compound 0.316 µM
[9] = second compound 0.0316 µM, first compound 1 µM
[10] = second compound 0.0316 µM, first compound 3.16 µM
[11] = second compound 0.1 µM, first compound 0.0316 µM
[12] = second compound 0.1 µM, first compound 0.1 µM
[13] = second compound 0.1 µM, first compound 0.316 µM
[14] = second compound 0.1 µM, first compound 1 µM
[15] = second compound 0.1 µM, first compound 3.16 µM
[16] = second compound 0.1 µM, first compound 10 µM
[17] = second compound 0.316 µM, first compound 0.0316 µM
[18] = second compound 0.316 µM, first compound 0.1 µM
[19] = second compound 0.316 µM, first compound 0.316 µM
[20] = second compound 0.316 µM, first compound 1 µM
[21] = second compound 0.316 µM, first compound 3.16 µM
[22] = second compound 0.316 µM, first compound 10 µM
[23] = second compound 1 µM, first compound 0.0316 µM
[24] = second compound 1 µM, first compound 0.1 µM
[25] = second compound 1 µM, first compound 0.316 µM
[26] = second compound 1 µM, first compound 1 µM
[27] = second compound 1 µM, first compound 3.16 µM
[28] = second compound 1 µM, first compound 10 µM
[29] = second compound 3.16 µM, first compound 0.0316 µM
[30] = second compound 3.16 µM, first compound 0.1 µM
[31] = second compound 3.16 µM, first compound 0.316 µM
[32] = second compound 3.16 µM, first compound 1 µM
[33] = second compound 3.16 µM, first compound 3.16 µM
[34] = second compound 3.16 µM, first compound 10 µM
[35] = second compound 0.0316 µM, first compound 0.01 µM
[36] = second compound 0.1 µM, first compound 0.01 µM
[37] = second compound 0.316 µM, first compound 0.01 µM
[38] = second compound 1 µM, first compound 0.01 µM
[39] = second compound 3.16 µM, first compound 0.01 µM
[40] = curve of first compound, second compound 10 µM
[41] = second compound 10 µM, first compound 0.0316 µM
[42] = second compound 10 µM, first compound 0.1 µM
[43] = second compound 10 µM, first compound 0.316 µM
[44] = second compound 10 µM, first compound 1 µM
[45] = second compound 10 µM, first compound 3.16 µM
[46] = second compound 10 µM, first compound 10 µM
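Note: spheroids exposed to agents for 7 days.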
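Throughout, for viability, T/C: 100% = DMSO vehicle control viability.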

Row | Structure (SMILES) | IC50 [2] [nM] | IC50 [3] [nM] | IC50 [4] [nM] | IC50 [5] [nM] | viability, T/C [11] [%] | viability, T/C [12] [%] | viability, T/C [13] [%] | viability, T/C [14] [%] | viability, T/C [15] [%] | viability, T/C [17] [%] | viability, T/C [18] [%] | viability, T/C [19] [%] | viability, T/C [20] [%] | viability, T/C [21] [%] | viability, T/C [23] [%] | viability, T/C [24] [%] | viability, T/C [25] [%] | viability, T/C [26] [%] | viability, T/C [27] [%] | viability, T/C [29] [%] | further results
1 | O=C(c1cc(Cc2n[nH]c(=O)c3ccccc23)ccc1F)N1CCN(C(=O)C2CC2)CC1 + C=CC(=O)N1CCN(c2nc(OCC3CCCN3C)nc3c2CCN(c2cccc4cccc(C)c24)C3)CC1CC#N | > 10000 | 4290 | 6240 | < 31.6 | 61.4 | 64.6 | 61.8 | 60.4 | 57.5 | 57.8 | 60.1 | 55.4 | 58 | 51.8 | 61.6 | 63.5 | 63.3 | 59.7 | 50.8 | 33.7 | IC50 [1]: 8150 nM; viability, T/C [6]: 79.1%; viability, T/C [7]: 77.5%; viability, T/C [8]: 76.1%; viability, T/C [9]: 71.6%; viability, T/C [10]: 74.3%; viability, T/C (second compound 0.0316 µM, first compound 10 µM): 44.9%; viability, T/C [16]: 48.5%; viability, T/C [22]: 43.1%; viability, T/C [28]: 48.3%; viability, T/C [30]: 27.4%; viability, T/C [31]: 25.1%; viability, T/C [32]: 31.8%; viability, T/C [33]: 34.7%; viability, T/C [34]: 25.1%
2 | CC1COCCN1c1cc(-c2ccnn2C)c2ccnc(-c3ccn[nH]3)c2n1 (configuration not stated) + C=CC(=O)N1CCN(c2nc(OCC3CCCN3C)nc3c2CCN(c2cccc4cccc(C)c24)C3)CC1CC#N | 12 | < 10 | < 10 | < 10 | 27.4 | 15.2 | 14.8 | 12.9 | 12.1 | 21.7 | 14 | 12.2 | 11.2 | 10.6 | 18.2 | 10.8 | 11.1 | 12.2 | 11.8 | 4.03 | IC50 [1]: < 10 nM; viability, T/C [35]: 49.2%; viability, T/C [6]: 26.8%; viability, T/C [7]: 18.7%; viability, T/C [8]: 16.4%; viability, T/C [9]: 13.9%; viability, T/C [10]: 12.6%; viability, T/C [36]: 54.5%; viability, T/C [37]: 41.4%; viability, T/C [38]: 33%; viability, T/C [39]: 5.59%; viability, T/C [30]: 3.06%; viability, T/C [31]: 1.93%; viability, T/C [32]: 1.48%; viability, T/C [33]: 2.61%
3 | CC1COCCN1c1cc(-c2ccnn2C)c2ccnc(-c3ccn[nH]3)c2n1 (configuration not stated) |  |  |  |  |  |  |  |  |  |  |  |  |  |  |  |  |  |  |  |  | viability, T/C (compound 0.01 µM): 77.9% [middle of 5 runs]; viability, T/C (compound 0.0316 µM): 39.8% [middle of 5 runs]; viability, T/C (compound 0.1 µM): 25.1% [middle of 5 runs]; viability, T/C (compound 0.316 µM): 21.9% [middle of 5 runs]; viability, T/C (compound 1 µM): 20.6% [middle of 5 runs]; viability, T/C (compound 3.16 µM): 18.9% [middle of 5 runs]; IC50 (curve of compound): 23.8 nM [middle of 5 runs]
4 | CC(C)NCC(C(=O)N1CCN(c2ncnc3c2C(C)CC3O)CC1)c1ccc(Cl)cc1 (configuration not stated) + COc1cc2nc(C)nc(NC(C)c3cc(N)cc(C(F)(F)F)c3)c2cc1OC1CCOC1 | 708 | 541 | 207 | 123 | 84.9 | 76 | 59.7 | 45.4 | 37.2 | 72.1 | 71.1 | 56.2 | 42.2 | 28 | 72.3 | 67.3 | 39.5 | 30.1 | 27.8 | 61.4 | IC50 [40]: 200 nM; viability, T/C [16]: 31.3%; viability, T/C [22]: 24.5%; viability, T/C [28]: 22.6%; viability, T/C [30]: 53%; viability, T/C [31]: 38.2%; viability, T/C [32]: 28.6%; viability, T/C [33]: 24.8%; viability, T/C [34]: 21.8%; viability, T/C [41]: 57%; viability, T/C [42]: 68.9%; viability, T/C [43]: 41.4%; viability, T/C [44]: 39%; viability, T/C [45]: 28.4%; viability, T/C [46]: 26.3%
5 | CC(=O)OC12COC1CC(O)C1(C)C(=O)C(O)C3=C(C)C(OC(=O)C(O)C(NC(=O)OC(C)(C)C)c4ccccc4)CC(O)(C(OC(=O)c4ccccc4)C21)C3(C)C (configuration not stated) + C=CC(=O)N1CCN(c2nc(OCC3CCCN3C)nc3c2CCN(c2cccc4cccc(C)c24)C3)CC1CC#N | < 10 | < 10 | < 10 | < 10 | 22.9 | 18.7 | 20.7 | 20.7 | 21.2 | 21.1 | 19.7 | 17.9 | 30.9 | 21.3 | 17.4 | 18.2 | 16 | 17.1 | 17.2 | 31.1 | IC50 [1]: < 10 nM; viability, T/C [35]: 25.4%; viability, T/C [6]: 23.9%; viability, T/C [7]: 22.6%; viability, T/C [8]: 23.2%; viability, T/C [9]: 22.9%; viability, T/C [10]: 23.6%; viability, T/C [36]: 21.5%; viability, T/C [37]: 20.1%; viability, T/C [38]: 19.4%; viability, T/C [39]: 31.7%; viability, T/C [30]: 26.5%; viability, T/C [31]: 24.8%; viability, T/C [32]: 27.7%; viability, T/C [33]: 31.2%
6 | CC1OCC2(CCN(c3cnc(Sc4ccnc(N)c4Cl)c(N)n3)CC2)C1N (configuration not stated) + CNCc1ccccc1-c1csc(C(C)Nc2nc(C)nc3cc(OC)c(OC)cc23)c1 | 404 | 202 | 548 | 351 | 77.4 | 65.6 | 53.4 | 38.6 | 28.7 | 82.1 | 55.4 | 44.1 | 41.6 | 27.9 | 101 | 71.9 | 60.5 | 40.7 | 35.1 | 83.5 | IC50 [40]: < 31.6 nM; viability, T/C [16]: 17.8%; viability, T/C [22]: 25.9%; viability, T/C [28]: 33.4%; viability, T/C [30]: 65.8%; viability, T/C [31]: 51.3%; viability, T/C [32]: 40.8%; viability, T/C [33]: 27%; viability, T/C [34]: 25.5%; viability, T/C [41]: 0.33%; viability, T/C [42]: 0.17%; viability, T/C [43]: 0.15%; viability, T/C [44]: 0.14%; viability, T/C [45]: 0.13%; viability, T/C [46]: 0.18%
7 | COc1cc2nccc(Oc3ccc(NC(=O)C4(C(=O)Nc5ccc(F)cc5)CC4)cc3)c2cc1OC + COc1cc2nc(C)nc(NC(C)c3cc(N)cc(C(F)(F)F)c3)c2cc1OC1CCOC1 | > 10000 | > 10000 | > 10000 | 9980 | 86.5 | 86.5 | 84.1 | 86.5 | 75.7 | 76 | 85.7 | 88 | 82.2 | 84.7 | 84.4 | 79.8 | 84.5 | 82.8 | 74.1 | 87.1 | IC50 [40]: 3890 nM; viability, T/C [16]: 86.2%; viability, T/C [22]: 75.2%; viability, T/C [28]: 66.3%; viability, T/C [30]: 85.3%; viability, T/C [31]: 95.3%; viability, T/C [32]: 89.6%; viability, T/C [33]: 79%; viability, T/C [34]: 49.5%; viability, T/C [41]: 85.4%; viability, T/C [42]: 93.6%; viability, T/C [43]: 84.9%; viability, T/C [44]: 84.3%; viability, T/C [45]: 59.1%; viability, T/C [46]: 7.87%
